Experimental data reported in article PMC7794544, “Microbial production of multiple short-chain primary amines via retrobiosynthesis” (Nature Communications, 2021).

Legend:
VlmD [1] = molecular target: T1, VlmD (Streptomyces viridifaciens, UniProt Q84F32); assay: HPLC (OPA derivatization) of n-butylamine formed; LC-MS confirmation; format: biochemical; conditions: 1 mM substrate, 0.1 mM PLP, 150 ug/mL enzyme, 50 mM potassium phosphate pH 7.5, 37 °C, 2 h
T1 construct: N-terminal His6 tag, codon-optimised gene in pET-22b(+), E. coli BL21(DE3), Talon resin
T1 sequence (Q84F32 entry or part of it): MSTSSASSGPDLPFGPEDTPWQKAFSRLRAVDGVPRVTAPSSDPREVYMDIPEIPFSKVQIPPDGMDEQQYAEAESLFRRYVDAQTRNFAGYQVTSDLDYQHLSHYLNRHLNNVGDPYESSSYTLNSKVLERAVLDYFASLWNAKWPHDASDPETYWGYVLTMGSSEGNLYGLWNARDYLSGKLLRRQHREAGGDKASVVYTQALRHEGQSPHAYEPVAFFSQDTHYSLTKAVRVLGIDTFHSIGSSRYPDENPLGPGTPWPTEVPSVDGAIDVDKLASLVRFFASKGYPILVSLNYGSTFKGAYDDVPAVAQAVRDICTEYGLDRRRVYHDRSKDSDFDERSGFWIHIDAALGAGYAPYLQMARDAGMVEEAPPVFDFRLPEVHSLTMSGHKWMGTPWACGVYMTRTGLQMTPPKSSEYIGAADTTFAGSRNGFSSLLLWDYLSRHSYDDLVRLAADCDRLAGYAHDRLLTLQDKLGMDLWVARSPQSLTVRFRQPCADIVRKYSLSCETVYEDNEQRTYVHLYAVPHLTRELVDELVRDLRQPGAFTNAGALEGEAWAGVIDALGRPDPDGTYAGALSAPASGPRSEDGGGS

VlmD [2] = molecular target: T1, VlmD; assay: HPLC (OPA derivatization) of iso-butylamine formed; LC-MS confirmation; format: biochemical; conditions: 1 mM substrate, 0.1 mM PLP, 150 ug/mL enzyme, 50 mM potassium phosphate pH 7.5, 37 °C, 2 h

Structure (SMILES)	HPLC (OPA derivatization) of n-butylamine formed; LC-MS confirmation (VlmD [1])	HPLC (OPA derivatization) of iso-butylamine formed; LC-MS confirmation (VlmD [2])
CCC[C@H](N)C(=O)O [L-norvaline]	VlmD showed relatively high activity toward L-2-aminobutyrate, L-norvaline, L-valine	
CC(C)[C@H](N)C(=O)O [L-valine]		VlmD consistently showed activities toward L-valine, L-leucine, and L-isoleucine as in the previous study
